These results are taken from paper PMC11079024, “Identification of a family of species-selective complex I inhibitors as potential anthelmintics” (Nature Communications, 2024).

Assay [1] addresses C. elegans (N2) complex I (NADH:ubiquinone oxidoreductase) (Caenorhabditis elegans, UniProt P24887+Q93873+Q94360). The experiment in a line: biochemical. The conditions noted are these: for Log IC50 C. elegans complex I: log10 of IC50 in µM, C. elegans mitochondria. The format is biochemical. In short, it runs like this: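 Complex I rate: initial linear slope of A600 over 15 min, expressed as percent of solvent control. Triple freeze-thawed mitochondria (0.2 mg/mL) in KPi pH 7.5, BSA 3 mg/mL, NADH 80 μM, decylubiquinone 60 μM, DCIP 160 μM, antimycin A, KCN.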

For assay [2], the target named is B. taurus (heart) complex I (Bos taurus, UniProt P03887+P17694+P42026). The experiment in a line: biochemical. Type of assay: biochemical. Conditions: for Log IC50 B. taurus complex I: log10 of IC50 in µM, B. taurus mitochondria. In short, it runs like this:
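Complex I activity followed as DCIP reduction (600 nm, 30 s reads, 15 min) with 80 μM NADH and 60 μM decylubiquinone in 25 mM KPi pH 7.5 containing 2 μM antimycin A and 2 mM KCN. Freeze-thawed mouse or bovine heart mitochondria at 0.2 mg/mL; initial-rate percent of solvent control, single-point 100 μM or dose-response.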

The subject of the next assay is L1 wild-type C. elegans. As to the kind of experiment: microbe, parasite or virus in culture. Conditions: Caenorhabditis elegans, read-out: C. elegans KCN Survival Assay LC50, estimated from fitted dose-response curves; mean of at least two biological replicates.
Setting [3] is: wild-type C. elegans, individual Rep1-Rep4, read-out: percent in vitro complex I activity relative to solvent control, single replicates.
Setting [4] is: wild-type C. elegans, mean of Rep1-4, read-out: percent in vitro complex I activity relative to solvent control, Mean.
Where [5] appears, read: in vitro complex I dose response on C. elegans mitochondria, average of at least two biological replicates, fit in R (DRC), read-out: IC50 C. elegans complex I.
[6] abbreviates: wild-type (N2) mitochondria, read-out: C. elegans Complex I IC50.
Setting [7] is: wild-type C. elegans mitochondria, estimated from fitted dose-response curves, read-out: C. elegans Complex I IC50.
Where [8] appears, read: B. taurus heart mitochondria, estimated from fitted dose-response curves, read-out: B. taurus Complex I IC50.

Read-outs that look alike come from different tables or passages of the source.

Chain of B. taurus (heart) complex I (P03887 whole entry): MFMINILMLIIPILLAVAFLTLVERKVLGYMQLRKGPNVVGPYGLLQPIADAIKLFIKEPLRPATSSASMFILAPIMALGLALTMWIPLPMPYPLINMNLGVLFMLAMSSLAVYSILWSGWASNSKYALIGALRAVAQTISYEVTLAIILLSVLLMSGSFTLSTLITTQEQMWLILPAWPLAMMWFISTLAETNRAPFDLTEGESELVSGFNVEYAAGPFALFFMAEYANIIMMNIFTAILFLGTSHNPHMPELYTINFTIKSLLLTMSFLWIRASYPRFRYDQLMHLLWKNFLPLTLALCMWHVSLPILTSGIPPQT
Chain of B. taurus (heart) complex I (P17694 34-463): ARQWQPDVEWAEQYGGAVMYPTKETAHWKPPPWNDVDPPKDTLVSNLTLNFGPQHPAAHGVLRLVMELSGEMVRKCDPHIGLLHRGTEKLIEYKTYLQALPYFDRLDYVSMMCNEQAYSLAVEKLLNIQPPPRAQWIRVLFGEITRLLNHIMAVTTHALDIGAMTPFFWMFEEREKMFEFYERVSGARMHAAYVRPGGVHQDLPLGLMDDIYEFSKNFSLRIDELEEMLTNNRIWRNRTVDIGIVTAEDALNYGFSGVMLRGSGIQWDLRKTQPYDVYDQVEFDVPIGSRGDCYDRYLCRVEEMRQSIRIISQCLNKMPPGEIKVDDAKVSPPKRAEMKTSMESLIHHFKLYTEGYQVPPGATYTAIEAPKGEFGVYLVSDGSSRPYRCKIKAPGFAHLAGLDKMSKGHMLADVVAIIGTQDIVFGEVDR
Chain of B. taurus (heart) complex I (P42026 38-216): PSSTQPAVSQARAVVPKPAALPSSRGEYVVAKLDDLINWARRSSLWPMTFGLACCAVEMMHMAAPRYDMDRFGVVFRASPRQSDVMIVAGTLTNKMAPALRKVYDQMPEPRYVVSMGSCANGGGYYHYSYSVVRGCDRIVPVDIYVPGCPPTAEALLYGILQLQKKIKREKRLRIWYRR
Chain of C. elegans (N2) complex I (NADH:ubiquinone oxidoreductase) (Q94360 17-199): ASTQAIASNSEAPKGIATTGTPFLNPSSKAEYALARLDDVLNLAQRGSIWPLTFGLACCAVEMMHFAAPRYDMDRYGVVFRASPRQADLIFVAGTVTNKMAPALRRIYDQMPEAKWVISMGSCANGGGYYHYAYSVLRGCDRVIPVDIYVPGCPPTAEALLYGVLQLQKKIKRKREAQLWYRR
Chain of C. elegans (N2) complex I (NADH:ubiquinone oxidoreductase) (P24887 whole entry): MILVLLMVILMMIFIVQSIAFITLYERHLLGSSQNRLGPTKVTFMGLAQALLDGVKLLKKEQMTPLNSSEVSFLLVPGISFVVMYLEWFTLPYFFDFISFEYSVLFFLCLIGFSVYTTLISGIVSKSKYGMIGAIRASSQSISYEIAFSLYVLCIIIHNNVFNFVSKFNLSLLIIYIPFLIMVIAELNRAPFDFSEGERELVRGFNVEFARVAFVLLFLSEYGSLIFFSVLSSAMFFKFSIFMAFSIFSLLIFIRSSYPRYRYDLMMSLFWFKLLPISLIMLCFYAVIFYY
Chain of C. elegans (N2) complex I (NADH:ubiquinone oxidoreductase) (Q93873 31-482): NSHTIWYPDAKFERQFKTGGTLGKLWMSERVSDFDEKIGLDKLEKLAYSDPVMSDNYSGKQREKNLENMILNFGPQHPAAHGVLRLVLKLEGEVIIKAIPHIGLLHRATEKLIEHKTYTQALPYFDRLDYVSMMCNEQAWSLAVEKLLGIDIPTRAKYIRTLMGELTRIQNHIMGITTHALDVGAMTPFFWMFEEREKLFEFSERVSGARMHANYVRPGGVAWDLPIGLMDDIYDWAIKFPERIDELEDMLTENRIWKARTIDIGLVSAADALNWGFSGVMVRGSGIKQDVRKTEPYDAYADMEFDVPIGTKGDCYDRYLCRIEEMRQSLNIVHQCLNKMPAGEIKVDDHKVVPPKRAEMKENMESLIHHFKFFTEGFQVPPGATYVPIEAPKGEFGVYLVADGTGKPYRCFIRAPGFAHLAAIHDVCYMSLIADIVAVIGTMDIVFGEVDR

One may read the IC50 as the concentration needed to halve the response being measured. Broadly, the LC50 is the concentration that kills 50% of the test population. As to `Cc1nc2ccccc2n1Cc1ccc(Br)cc1` [Compound 5567167], in assay [1] (setting [3]), the remaining activity at 0.0001 µM came out at 94%, the remaining activity at 0.0005 µM was 85.1%, the remaining activity at 0.001 µM was determined as 85.9% and the remaining activity at 0.005 µM was 78%. Besides, in assay [1] (setting [3]), the remaining activity at 0.013 µM came to 72.2%, the remaining activity at 0.025 µM is 66.7%, the remaining activity at 0.063 µM stood at 38.8% and the remaining activity at 0.125 µM is 23.6%. For the same compound, in assay [1] (setting [3]), the remaining activity at 0.313 µM worked out at 8.78%, the remaining activity at 15 µM is 0% and the remaining activity at 37.5 µM was 0%. In assay [1] (setting [4]), the remaining activity at 0.0001 µM turned out to be 85.9%, the remaining activity at 0.0005 µM came to 85.6%, the remaining activity at 0.001 µM was determined as 84.4% and the remaining activity at 0.005 µM amounted to 79.5%. For the same compound, in assay [1] (setting [4]), the remaining activity at 0.013 µM came to 70.5%, the remaining activity at 0.025 µM was 62%, the remaining activity at 0.063 µM amounted to 36% and the remaining activity at 0.125 µM is 23.7%. In assay [1] (setting [4]), the remaining activity at 0.313 µM turned out to be 11.9%, the remaining activity at 15 µM is 0% and the remaining activity at 37.5 µM was determined as 0%. Further, the remaining activity at 0.0025 µM in assay [1] (0.0025 µM, wild-type C. elegans, mean of Rep1-4, read-out: percent in vitro complex I activity relative to solvent control, Mean) amounted to 79.7%. Also, in assay [1] (0.625 µM, wild-type C. elegans, mean of Rep1-4, read-out: percent in vitro complex I activity relative to solvent control, Mean), the remaining activity at 0.625 µM came out at 2.34%. In assay [1] (1.5 µM, wild-type C. elegans, mean of Rep1-4, read-out: percent in vitro complex I activity relative to solvent control, Mean), the remaining activity at 1.5 µM worked out at 0.485%. The remaining activity at 3 µM in assay [1] (3 µM, wild-type C. elegans, mean of Rep1-4, read-out: percent in vitro complex I activity relative to solvent control, Mean) was found to be 0.612%. Besides, the remaining activity at 75 µM in assay [1] (75 µM, wild-type C. elegans, mean of Rep1-4, read-out: percent in vitro complex I activity relative to solvent control, Mean) is 0.911%. The IC50 in assay [1] (setting [5]) was 32 nM. Also, the “Log IC50 C. elegans complex I” value in assay [1] was -1.49 µM. Besides, in assay [1] (setting [6]), the IC50 was found to be 32 nM. Further, in assay [1] (setting [7]), the IC50 was 32 nM. The IC50 in assay [2] (setting [8]) is 209 nM. Moreover, the IC50 in assay [2] (in vitro complex I dose response on B. taurus mitochondria, average of at least two biological replicates, fit in R (DRC), read-out: IC50 B. taurus complex I) stood at 210 nM. The “Log IC50 B. taurus complex I” value in assay [2] is on record as -0.68 µM. Besides, the LC50 in the assay with L1 wild-type C. elegans is 1340 nM.
In the case of `Nc1nc2ccccc2n1Cc1ccc(Br)cc1` [Compound 7313068], the IC50 in assay [1] (setting [5]) is 340 nM; in assay [1] (setting [6]), 340 nM; in assay [1] (setting [7]), 340 nM; in assay [2] (setting [8]) it was 1310 nM. Also, in assay [1], the “Log IC50 C. elegans complex I” value is recorded as -0.47 µM. The “Log IC50 B. taurus complex I” value in assay [2] is given as 0.12 µM. In addition, the LC50 in the assay on L1 wild-type C. elegans is 14900 nM.
For `Cc1ccc(Cn2c(C)nc3ccccc32)cc1` [Compound 5651984], the IC50 in assay [1] (setting [5]) was 180 nM; in assay [1] (setting [6]) it was 180 nM; in assay [1] (setting [7]), 180 nM; in assay [2] (setting [8]), 990 nM. The “Log IC50 C. elegans complex I” value in assay [1] is listed as -0.74 µM. Further, the “Log IC50 B. taurus complex I” value in assay [2] is -0.00436 µM. The LC50 with L1 wild-type C. elegans was 7240 nM.
Consider `C=CCn1c(C(C)c2ccc(CC(C)C)cc2)nc2ccccc21` (centres unmarked) [STL020755], for which the IC50 in assay [1] (setting [5]) is 2270 nM; in assay [1] (setting [6]) it was 2270 nM; in assay [1] (setting [7]), 2270 nM; in assay [2] (setting [8]), 16800 nM. The “Log IC50 C. elegans complex I” value in assay [1] is reported as 0.36 µM. Besides, in assay [2], the “Log IC50 B. taurus complex I” value amounted to 1.23 µM. In addition, the LC50 in the assay with L1 wild-type C. elegans is 9970 nM.
`CCCOc1ccc(Cn2cnc3ccccc32)cc1` [Compound 7355741]: the activity at 0.0001 µM in assay [1] (Dose 0.0001 µM, read-out: C. elegans mitochondrial complex I activity) was 85.2%; in assay [2] (Dose 0.0001 µM, read-out: B. taurus mitochondrial complex I activity), 95.3%. Moreover, the activity at 0.0005 µM worked out at 94.7% in assay [1] (Dose 0.0005 µM, read-out: C. elegans mitochondrial complex I activity) and 97.8% in assay [2] (Dose 0.0005 µM, read-out: B. taurus mitochondrial complex I activity). Also, the activity at 0.001 µM in assay [1] (Dose 0.001 µM, read-out: C. elegans mitochondrial complex I activity) was determined as 89.8%; in assay [2] (Dose 0.001 µM, read-out: B. taurus mitochondrial complex I activity), 102%. In addition, the activity at 0.0025 µM in assay [1] (Dose 0.0025 µM, read-out: C. elegans mitochondrial complex I activity) amounted to 99%; in assay [2] (Dose 0.0025 µM, read-out: B. taurus mitochondrial complex I activity), 105%. Also, the activity at 0.005 µM in assay [1] (Dose 0.005 µM, read-out: C. elegans mitochondrial complex I activity) was 86.1%; in assay [2] (Dose 0.005 µM, read-out: B. taurus mitochondrial complex I activity), 102%. Further, the activity at 0.013 µM amounted to 94.6% in assay [1] (Dose 0.013 µM, read-out: C. elegans mitochondrial complex I activity) and 104% in assay [2] (Dose 0.013 µM, read-out: B. taurus mitochondrial complex I activity). Moreover, the activity at 0.025 µM in assay [1] (Dose 0.025 µM, read-out: C. elegans mitochondrial complex I activity) came to 90.6%; in assay [2] (Dose 0.025 µM, read-out: B. taurus mitochondrial complex I activity), 109%. The activity at 0.063 µM in assay [1] (Dose 0.063 µM, read-out: C. elegans mitochondrial complex I activity) was 82.3%; in assay [2] (Dose 0.063 µM, read-out: B. taurus mitochondrial complex I activity), 57.4%. Further, the activity at 0.125 µM in assay [1] (Dose 0.125 µM, read-out: C. elegans mitochondrial complex I activity) came out at 77.2%; in assay [2] (Dose 0.125 µM, read-out: B. taurus mitochondrial complex I activity), 101%. Further, the activity at 0.313 µM in assay [1] (Dose 0.313 µM, read-out: C. elegans mitochondrial complex I activity) is 62.4%; in assay [2] (Dose 0.313 µM, read-out: B. taurus mitochondrial complex I activity), 97.1%. Also, the activity at 0.625 µM in assay [1] (Dose 0.625 µM, read-out: C. elegans mitochondrial complex I activity) was 47.9%; in assay [2] (Dose 0.625 µM, read-out: B. taurus mitochondrial complex I activity), 86%. In addition, the activity at 1.5 µM turned out to be 31.8% in assay [1] (Dose 1.5 µM, read-out: C. elegans mitochondrial complex I activity) and 75.9% in assay [2] (Dose 1.5 µM, read-out: B. taurus mitochondrial complex I activity). Moreover, the activity at 3 µM is 15.1% in assay [1] (Dose 3 µM, read-out: C. elegans mitochondrial complex I activity) and 37% in assay [2] (Dose 3 µM, read-out: B. taurus mitochondrial complex I activity). Also, the activity at 15 µM in assay [1] (Dose 15 µM, read-out: C. elegans mitochondrial complex I activity) was 3.6%; in assay [2] (Dose 15 µM, read-out: B. taurus mitochondrial complex I activity), 13.2%. Moreover, the activity at 37.5 µM worked out at 5.38% in assay [1] (Dose 37.5 µM, read-out: C. elegans mitochondrial complex I activity) and 1.26% in assay [2] (Dose 37.5 µM, read-out: B. taurus mitochondrial complex I activity). Further, the activity at 75 µM in assay [1] (Dose 75 µM, read-out: C. elegans mitochondrial complex I activity) came out at 7.89%; in assay [2] (Dose 75 µM, read-out: B. taurus mitochondrial complex I activity), 2.32%. Further, the IC50 is 620 nM in assay [1] (setting [5]), 620 nM in assay [1] (setting [6]), 620 nM in assay [1] (setting [7]) and 3070 nM in assay [2] (setting [8]). Further, the “Log IC50 C. elegans complex I” value in assay [1] is reported as -0.21 µM. The “Log IC50 B. taurus complex I” value in assay [2] was 0.49 µM. Also, the LC50 in the assay on L1 wild-type C. elegans was 7000 nM.
